Measured values as given in ChEMBL document CHEMBL4665654, “Design, synthesis and evaluation of antiproliferative activity of fluorinated betulinic acid” (Bioorg Med Chem, 2019).
Activity calls are given as the source filed them. The calls are words filed in the database; no cut-off is given here.

How the values were obtained:
[1] = Antiproliferative activity against human KB-VIN cells assessed as cell growth inhibition after 72 hrs by sulforhodamine B assay; type: functional, cell-based; details: KBVIN
[2] = system: A549; assay: Antiproliferative activity against human A549 cells assessed as cell growth inhibition after 72 hrs by sulforhodamine B assay; type: functional, cell-based; details: A549, 72 h
[3] = system: MDA-MB-231; assay: Antiproliferative activity against human MDA-MB-231 cells assessed as cell growth inhibition after 72 hrs by sulforhodamine B assay; type: functional, cell-based; details: MDA-MB-231, 72 h
[4] = system: KB; assay: Antiproliferative activity against human KB cells assessed as cell growth inhibition after 72 hrs by sulforhodamine B assay; type: functional, cell-based
[5] = system: MCF7; assay: Antiproliferative activity against human MCF7 cells assessed as cell growth inhibition after 72 hrs by sulforhodamine B assay; type: functional, cell-based; details: MCF7, 72 h
[6] = system: MCF7; assay: Modulation of DNA replication associated gene expression in human MCF7 cells at 40 uM after 24 hrs by cDNA microarray analysis; type: functional, cell-based
[7] = system: MCF-10A; assay: Cytotoxicity against human MCF-10A cells assessed as cell viability at 10 uM after 72 hrs by MTT assay; type: cell-based
[8] = Cytotoxicity against human MCF-10A cells assessed as cell viability at 30 uM after 72 hrs by MTT assay; type: cell-based; details: read-out: Activity
[9] = system: MCF7; assay: Antiproliferative activity against human MCF7 cells assessed as cell killing at 30 uM after 72 hrs by MTT assay; type: functional
[10] = system: MCF7; assay: Inhibition of colony formation in human MCF7 cells at 10 to 40 uM of compound exposure followed by compound washout and subsequent incubation for 3 weeks by crystal violet staining based assay; type: functional, cell-based; details: dose microM 10-40
[11] = system: MCF7; assay: Induction of apoptosis in human MCF7 cells incubated for 24 to 72 hrs by Annexin V-FITC/propidium iodide staining-based flow cytometric analysis; type: functional, cell-based; details: dose microM 20-40, time hrs 24-72
[12] = system: MCF7; assay: Induction of apoptosis in human MCF7 cells at 20 to 40 uM by Annexin V-FITC/propidium iodide staining-based flow cytometric analysis; type: functional, cell-based; details: dose microM 20-40, time hrs 24-72, TDE = time-dependent effect
[13] = system: MCF7; assay: Induction of apoptosis in human MCF7 cells assessed as increase in cleaved caspase-9 protein expression at 20 to 40 uM incubated for 72 hrs by Western blot analysis; type: functional, cell-based; details: dose microM 20-40, time 72.0 hrs
[14] = system: MCF7; assay: Induction of apoptosis in human MCF7 cells assessed as increase in cleaved caspase-7 protein expression at 20 to 40 uM incubated for 72 hrs by Western blot analysis; type: functional, cell-based; details: dose microM 20-40, time 72.0 hrs
[15] = system: MCF7; assay: Induction of apoptosis in human MCF7 cells assessed as increase in cleaved PARP protein expression at 20 to 40 uM incubated for 72 hrs by Western blot analysis; type: functional, cell-based; details: dose microM 20-40, time 72.0 hrs
[16] = molecular target: T1, DNA topoisomerase 1 (Homo sapiens) (UniProt P11387); assay: Inhibition of topoisomerase 1 in human MCF7 cells nuclear extract assessed as decrease in relaxation/nicking of supercoiled DNA using supercoiled DNA as substrate at 40 uM after 1 hr by ethidium bromide staining based agarose gel electrophoresis analysis; type: subcellular; details: Nucleus
T1 sequence (whole entry): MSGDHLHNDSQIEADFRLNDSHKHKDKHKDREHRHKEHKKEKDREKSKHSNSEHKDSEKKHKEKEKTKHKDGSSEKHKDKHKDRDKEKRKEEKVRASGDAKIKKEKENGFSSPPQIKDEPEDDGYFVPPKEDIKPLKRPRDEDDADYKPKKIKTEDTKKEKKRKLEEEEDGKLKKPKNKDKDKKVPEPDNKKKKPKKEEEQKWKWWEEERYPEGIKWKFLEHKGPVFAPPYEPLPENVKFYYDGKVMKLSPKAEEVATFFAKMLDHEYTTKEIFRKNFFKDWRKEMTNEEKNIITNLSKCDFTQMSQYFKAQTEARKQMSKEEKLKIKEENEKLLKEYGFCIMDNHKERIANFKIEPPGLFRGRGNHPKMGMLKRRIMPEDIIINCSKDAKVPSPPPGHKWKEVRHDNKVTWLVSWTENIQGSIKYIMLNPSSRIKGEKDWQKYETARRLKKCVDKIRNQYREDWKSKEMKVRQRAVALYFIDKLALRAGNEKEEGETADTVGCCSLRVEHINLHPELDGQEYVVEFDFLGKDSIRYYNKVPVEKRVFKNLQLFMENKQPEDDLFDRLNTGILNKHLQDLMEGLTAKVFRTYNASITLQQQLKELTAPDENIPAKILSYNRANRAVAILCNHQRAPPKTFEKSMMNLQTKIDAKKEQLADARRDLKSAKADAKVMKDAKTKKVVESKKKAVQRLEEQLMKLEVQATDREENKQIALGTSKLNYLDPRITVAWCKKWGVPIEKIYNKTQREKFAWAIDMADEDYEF

[17] = molecular target: DNA topoisomerase 2-alpha (Homo sapiens) (UniProt P11388); assay: Inhibition of topoisomerase-2alpha in human MCF7 cells nuclear extract assessed as decrease in relaxation/nicking of kinetoplast DNA using kDNA as substrate at 40 uM after 15 mins by ethidium bromide staining based agarose gel electrophoresis analysis; type: subcellular; details: Nucleus
Sequence of DNA topoisomerase 2-alpha (Homo sapiens) (P11388 whole entry): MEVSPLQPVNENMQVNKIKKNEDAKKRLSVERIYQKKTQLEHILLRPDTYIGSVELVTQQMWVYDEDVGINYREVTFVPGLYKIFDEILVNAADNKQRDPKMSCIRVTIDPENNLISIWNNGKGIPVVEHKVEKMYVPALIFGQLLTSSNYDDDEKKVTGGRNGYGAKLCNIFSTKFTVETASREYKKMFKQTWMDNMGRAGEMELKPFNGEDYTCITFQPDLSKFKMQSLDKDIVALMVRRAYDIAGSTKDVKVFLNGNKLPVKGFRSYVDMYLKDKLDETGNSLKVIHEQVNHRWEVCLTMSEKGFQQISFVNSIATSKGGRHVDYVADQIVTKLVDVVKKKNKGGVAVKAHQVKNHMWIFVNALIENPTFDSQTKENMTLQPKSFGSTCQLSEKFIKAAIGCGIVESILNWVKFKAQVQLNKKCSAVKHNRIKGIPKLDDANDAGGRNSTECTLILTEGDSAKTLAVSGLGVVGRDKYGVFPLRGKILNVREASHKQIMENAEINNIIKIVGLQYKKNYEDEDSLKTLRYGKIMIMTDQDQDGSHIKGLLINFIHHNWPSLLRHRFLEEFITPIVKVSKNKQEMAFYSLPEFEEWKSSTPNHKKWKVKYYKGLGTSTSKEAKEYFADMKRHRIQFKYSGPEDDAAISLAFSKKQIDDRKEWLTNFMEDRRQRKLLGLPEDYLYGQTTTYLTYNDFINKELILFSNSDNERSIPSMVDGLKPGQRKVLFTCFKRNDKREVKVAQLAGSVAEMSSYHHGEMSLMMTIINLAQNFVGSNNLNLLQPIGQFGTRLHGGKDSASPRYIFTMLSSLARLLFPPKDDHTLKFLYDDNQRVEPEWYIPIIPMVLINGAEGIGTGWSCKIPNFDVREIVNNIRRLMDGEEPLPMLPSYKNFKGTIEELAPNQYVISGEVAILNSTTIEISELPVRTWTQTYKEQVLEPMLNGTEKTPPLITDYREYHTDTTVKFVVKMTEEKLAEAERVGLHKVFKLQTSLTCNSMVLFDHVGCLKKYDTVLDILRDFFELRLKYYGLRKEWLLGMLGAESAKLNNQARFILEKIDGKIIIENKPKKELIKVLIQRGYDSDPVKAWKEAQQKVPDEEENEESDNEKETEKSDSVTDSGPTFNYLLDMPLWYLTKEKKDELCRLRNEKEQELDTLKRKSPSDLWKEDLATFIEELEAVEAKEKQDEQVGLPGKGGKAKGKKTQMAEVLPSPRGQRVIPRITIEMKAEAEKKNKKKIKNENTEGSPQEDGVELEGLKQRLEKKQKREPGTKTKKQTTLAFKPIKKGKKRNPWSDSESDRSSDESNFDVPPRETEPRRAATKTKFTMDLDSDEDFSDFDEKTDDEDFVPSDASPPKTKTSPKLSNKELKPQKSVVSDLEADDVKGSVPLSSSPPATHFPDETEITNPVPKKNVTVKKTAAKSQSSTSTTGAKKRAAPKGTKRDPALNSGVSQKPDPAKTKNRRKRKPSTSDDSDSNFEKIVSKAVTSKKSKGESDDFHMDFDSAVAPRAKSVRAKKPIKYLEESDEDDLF

[18] = molecular target: T1, DNA topoisomerase 1 (Homo sapiens); assay: Inhibition of recombinant human topoisomerase 1 assessed as decrease in relaxation/nicking of supercoiled DNA using supercoiled DNA as substrate at 10 uM after 1 hr by ethidium bromide staining based agarose gel electrophoresis analysis
[19] = molecular target: T1, DNA topoisomerase 1 (Homo sapiens); assay: Inhibition of recombinant human topoisomerase 1 assessed as decrease in relaxation/nicking of supercoiled DNA using supercoiled DNA as substrate after 1 hr by ethidium bromide staining based agarose gel electrophoresis analysis; details: dose microM 1-30, time 1.0 hrs
[20] = molecular target: T1, DNA topoisomerase 1 (Homo sapiens); assay: Inhibition of recombinant human topoisomerase 1 assessed as decrease in relaxation/nicking of supercoiled DNA using supercoiled DNA as substrate at 3 uM after 1 hr by ethidium bromide staining based agarose gel electrophoresis analysis
[21] = molecular target: DNA topoisomerase 2-alpha (Homo sapiens) (UniProt P11388); assay: Inhibition of recombinant human topoisomerase-2alpha assessed as decrease in relaxation/nicking of kinetoplast DNA using kDNA as substrate after 15 mins by ethidium bromide staining based agarose gel electrophoresis analysis; details: dose microM 30-100, time 15.0 min
[22] = molecular target: DNA topoisomerase 2-alpha (Homo sapiens) (UniProt P11388); assay: Inhibition of recombinant human topoisomerase-2alpha assessed as decrease in relaxation/nicking of kinetoplast DNA using kDNA as substrate at 30 uM after 15 mins by ethidium bromide staining based agarose gel electrophoresis analysis
[23] = system: MCF7; assay: Modulation of DNA repair related gene expression in human MCF7 cells at 40 uM after 24 hrs by cDNA microarray analysis; type: functional, cell-based
[24] = molecular target: T1, DNA topoisomerase 1 (Homo sapiens); assay: Inhibition of recombinant human topoisomerase 1 assessed as decrease in relaxation/nicking of supercoiled DNA using supercoiled DNA as substrate at 30 uM after 1 hr by ethidium bromide staining based agarose gel electrophoresis analysis
[25] = molecular target: DNA topoisomerase 2-alpha (Homo sapiens) (UniProt P11388); assay: Inhibition of recombinant human topoisomerase-2alpha assessed as decrease in relaxation/nicking of kinetoplast DNA using kDNA as substrate at 100 uM after 15 mins by ethidium bromide staining based agarose gel electrophoresis analysis
[26] = system: MCF7; assay: Induction of apoptosis in human MCF7 cells at 40 uM incubated for 24 to 72 hrs by Annexin V-FITC/propidium iodide staining-based flow cytometric analysis; type: functional, cell-based; details: time hrs 24-72

Compound CC(=O)O[C@H]1C(=O)[C@@]2(C)[C@H]([C@H](OC(=O)c3ccccc3)[C@]3(O)C[C@H](OC(=O)[C@H](O)[C@@H](NC(=O)c4ccccc4)c4ccccc4)C(C)=C1C3(C)C)[C@]1(OC(C)=O)CO[C@@H]1C[C@@H]2O [PACLITAXEL] has an IC50 [1] of 2.9 µM.

In the case of C=C(C)[C@@H]1CC[C@]2(C(=O)O)CC[C@]3(C)[C@H](CC[C@@H]4[C@@]5(C)CC(F)[C@H](OC(=O)CC(C)(C)C(=O)O)C(C)(C)[C@@H]5CC[C@]43C)[C@@H]12 (stereo partly specified), the IC50 [2] is reported as over 10 µM, the IC50 [3] is reported as over 10 µM and the IC50 [4] is reported as over 10 µM. It also gave an IC50 [1] of over 10 µM and an IC50 [5] of over 10 µM.

For C=C(C)[C@@H]1CC[C@]2(C(=O)O)CC[C@]3(C)[C@H](CC[C@@H]4[C@@]5(C)CC(F)[C@H](O)C(C)(C)[C@@H]5CC[C@]43C)[C@@H]12 (mixture of isomers), the Activity [6] was “Active”, the IC50 [2] was 6.1 µM and the IC50 [3] was 11 µM. For the same compound, the IC50 [4] was 6.5 µM, the IC50 [1] was 7 µM and the IC50 [5] was 9.2 µM. The Activity [7] was “Non-Toxic”, the viability at 72 h, 30 µM [8] was 80% and the Activity [9] was over 80%. The inhibition [10] was “Active”, the Activity [11] was “Dose-dependent effect” and the Activity [12] was “Tde”. The Activity [13] was “Active”, the Activity [14] was “Active” and the Activity [15] was “Active”. For the same compound, the inhibition [16] was “Active”, the inhibition [17] was “Active” and the inhibition [18] was “Active”. The inhibition [19] was “Dose-dependent effect”, the inhibition [20] was “Active” and the inhibition [21] was “Dose-dependent effect”. The inhibition [22] was “Active” and the Activity [23] was “Active”.

C=C(C)[C@@H]1CC[C@]2(C(=O)OCc3ccc(Cl)cc3)CC[C@]3(C)[C@H](CC[C@@H]4[C@@]5(C)C[C@@H](F)C(=O)C(C)(C)[C@@H]5CC[C@]43C)[C@@H]12 gave an IC50 [2] of over 40 µM, an IC50 [3] of over 40 µM and an IC50 [4] of over 40 µM. It also gave an IC50 [1] of over 40 µM and an IC50 [5] of over 40 µM.

For C=C(C)[C@@H]1CC[C@]2(C(=O)O)CC[C@]3(C)[C@H](CC[C@@H]4[C@@]5(C)CC[C@H](O)C(C)(C)[C@@H]5CC[C@]43C)[C@@H]12 [BETULINIC ACID], the IC50 [2] was 29.5 µM, the IC50 [3] was over 40 µM and the IC50 [4] was 28.7 µM. The IC50 [1] was 30.7 µM, the IC50 [5] was over 40 µM and the inhibition [10] was “Active”. For the same compound, the inhibition [16] was “inactive”, the inhibition [17] was “inactive” and the inhibition [18] was “inactive”. The inhibition [24] was “Active”, the inhibition [25] was “inactive” and the Activity [26] was “Active”.

For C=C(C)[C@@H]1CC[C@]2(C(=O)O)CC[C@]3(C)[C@H](CC[C@@H]4[C@@]5(C)C[C@H](F)[C@H](O)C(C)(C)[C@@H]5CC[C@]43C)[C@@H]12, the IC50 [2] was 4.5 µM, the IC50 [3] was 12.4 µM and the IC50 [4] was 6.1 µM. The IC50 [1] was 6 µM and the IC50 [5] was 14.4 µM.

With C=C(C)[C@@H]1CC[C@]2(C(=O)OC)CC[C@]3(C)[C@H](CC[C@@H]4[C@@]5(C)CC(F)[C@H](O)C(C)(C)[C@@H]5CC[C@]43C)[C@@H]12 (mixture of isomers) the IC50 [2] was over 10 µM, the IC50 [3] was over 10 µM and the IC50 [4] was over 10 µM. For the same compound, the IC50 [1] was over 10 µM and the IC50 [5] was over 10 µM.

C=C(C)[C@@H]1CC[C@]2(C(=O)OC)CC[C@]3(C)[C@H](CC[C@@H]4[C@@]5(C)CC(F)[C@H](OC(=O)CC(C)(C)C(=O)O)C(C)(C)[C@@H]5CC[C@]43C)[C@@H]12 (stereo partly specified) gave an IC50 [2] of over 10 µM, an IC50 [3] of over 10 µM and an IC50 [4] of over 10 µM. The IC50 [1] was over 10 µM and the IC50 [5] was over 10 µM.
